The source of these data is article PMC7424068, “Design, Synthesis, and Biological Evaluation of Novel Thiazolidinone-Containing Quinoxaline-1,4-di-N-oxides as Antimycobacterial and Antifungal Agents” (Frontiers in Chemistry, 2020).

In data set [1] the test system is Mtb H37Rv (ATCC27294). The data set can be described thus: Antimycobacterial activity, microplate Alamar blue assay (MABA). In kind it is cell-based, Mycobacterium tuberculosis. The conditions noted are these: for antimycobacterial activity (in words): Mtb strain H37Rv; for MIC: Mycobacterium tuberculosis, Mtb H37Rv. On the technique in general: Resazurin is reduced to fluorescent resorufin, in cell work by metabolically active cells.

The test system of data set [2] is VERO cell line. The data set is described as follows: Cytotoxicity MTT assay. The format is cell-based. Conditions: Chlorocebus sabaeus, cytotoxicity in VERO cells, 72 h. Here is the method: VERO cells (2 × 10^4 cells) were seeded into 96-well plates and incubated for 12 h. Serial dilutions of the compounds were mixed with the cell suspension in the plates. Both treated cells and blank and solvent controls were incubated for 72 h, followed by incubation with MTT (0.5 mg/mL) for another 4 h. The microplates were measured at 570 nm using a multimode reader (Infinite M200, Tecan). The percentage of viable cells was calculated as the mean with respect to the controls set to 100%. Triplicate wells were analyzed for each concentration. IC50 was defined as the concentration that reduced the viable cells by 50% compared to the untreated control cells. It was considered significant when the SI was more than 10.
In general terms: Tetrazolium dyes change colour on reduction, which living cells bring about.

For data set [3], the system named is C. albicans (ATCC90028). The data set can be described thus: Antifungal activity, broth microdilution. In kind it is cell-based, Candida albicans. The conditions noted are these: Candida albicans ATCC 90028, read-out: MIC. Here is the method: (§1) All synthesized compounds and the positive control drugs amphotericin B and ketoconazole were tested for their in vitro antifungal activity. Antifungal activity was evaluated against four fungi, C. albicans (ATCC90028), C. tropicalis (ATCC7349), A. fumigatus (3.5352), and C. neoformans (2.3201), by broth microdilution according to the protocols from the NCCLS (Jiang et al., [2014]). Briefly, all tested compounds were dissolved in DMSO, and the solutions were diluted with fresh broth medium. All of the fungi-seeded broth (1 × 10^5 colony-forming units [CFU]/mL) were prepared in RPMI 1640 medium and added into the serially diluted drug solution. The tubes were incubated at 28°C, and the MIC (μg/mL) was recorded 72–96 h post-incubation. Broth control (without fungi), growth controls (with fungi and without drug), solvent (DMSO) control, and drug control for both test drugs and standard drugs were set under identical conditions. The minimum drug concentration in the tubes in which no apparent growth of the organism was observed represented the MIC of the compounds.

Data set [4] relates to A. fumigatus (3.5352). The data set is described as follows: Antifungal activity, broth microdilution. The conditions noted are these: Aspergillus fumigatus; A. fumigatus 3.5352; read-out: MIC. In kind it is cell-based. The method, then: as §1
Data set [5] has as its system C. neoformans (2.3201). The data set can be described thus: Antifungal activity, broth microdilution. The format is cell-based. The conditions noted are these: Cryptococcus neoformans; C. neoformans 2.3201; read-out: MIC. Here is the method:
as §1

Data set [6] has as its system C. tropicalis (ATCC7349). The data set is described as follows: Antifungal activity, broth microdilution. In kind it is cell-based. Conditions: Candida tropicalis, C. tropicalis ATCC 7349, read-out: MIC. Here is the method: as §1
Background: In broth dilution the organism is exposed to a series of concentrations in liquid medium.

[7] abbreviates: repeated in Table 5 for the 3D-QSAR models, read-out: MIC.
Setting [8] is: experimental pMIC, Table 5, read-out: pMIC exp (converted).

≈ marks a conversion by molar mass, not a printed value. Where two headings read alike, the source gives them in different places.

For the compound `Cc1ccc2c(c1)[n+]([O-])c(C1SCC(=O)N1c1ccc(F)cc1)c[n+]2[O-]` (stereo not shown) [2j, 7-CH3-2-(3′-P-fluorophenyl-4′(5H)-thiazolidinone)-quinoxaline-1,4-di-N-oxide], the melting point was 243 to 245 °C. In addition, the “antimycobacterial activity (in words)” value in data set [1] is “good antimycobacterial activity”. The MIC in data set [1] (MABA assay, read-out: MIC) was 6.25 µg/mL. Moreover, the MIC in data set [1] (setting [7]) came to 6.25 µg/mL. Besides, in data set [1] (setting [8]), the MIC is 16.9 µM. Also, the IC50 in data set [2] was found to be 114 µg/mL (≈ 306 µM). Also, the MIC in data set [3] worked out at 16 µg/mL (≈ 43.1 µM). Besides, the MIC in data set [4] amounted to 32 µg/mL (≈ 86.2 µM). Further, in data set [5], the MIC came to 16 µg/mL (≈ 43.1 µM). Moreover, the MIC in data set [6] came out at 8 µg/mL (≈ 21.5 µM).
Turning to `O=C1CSC(c2c[n+]([O-])c3ccccc3[n+]2[O-])N1c1ccccc1` (stereo not shown) [2a, 2-(3′-phenyl-4′(5H)-thiazolidinone)-quinoxaline-1,4-di-N-oxide], the melting point lay in the range of 245 to 248 °C. The “antimycobacterial activity (in words)” value in data set [1] is reported as “good antimycobacterial activity”. The MIC in data set [1] (MABA assay, read-out: MIC) worked out at 6.25 µg/mL. Moreover, the MIC in data set [1] (setting [7]) is 6.25 µg/mL. Also, the MIC in data set [1] (setting [8]) was 18.5 µM. Moreover, the IC50 in data set [2] turned out to be 144 µg/mL (≈ 423 µM). Also, in data set [3], the MIC is 16 µg/mL (≈ 47.1 µM). Besides, the MIC in data set [4] was 32 µg/mL (≈ 94.3 µM). The MIC in data set [5] stood at 16 µg/mL (≈ 47.1 µM). For the same compound, in data set [6], the MIC came to 8 µg/mL (≈ 23.6 µM).
In turn, `Cc1ccc2c(c1)[n+]([O-])c(C1SCC(=O)N1c1ccc(Cl)cc1)c[n+]2[O-]` (stereo not shown) [2k, 7-CH3-2-(3′-P-chlorophenyl-4′(5H)-thiazolidinone)-quinoxaline-1,4-di-N-oxide] gave a melting point of 244 to 248 °C. In addition, the “antimycobacterial activity (in words)” value in data set [1] is “good antimycobacterial activity”. Further, the MIC in data set [1] (MABA assay, read-out: MIC) is not above 3.13 µg/mL. Besides, the MIC in data set [1] (setting [7]) amounted to 3.13 µg/mL. Also, the MIC in data set [1] (setting [8]) was 8.09 µM. Also, in data set [2], half-maximal inhibition (IC50) was put at 102 µg/mL (≈ 264 µM). For the same compound, the MIC in data set [3] is 32 µg/mL (≈ 82.5 µM). Also, the MIC in data set [4] is 32 µg/mL (≈ 82.5 µM). Also, in data set [5], the MIC was found to be 32 µg/mL (≈ 82.5 µM). The MIC in data set [6] came out at 16 µg/mL (≈ 41.3 µM).
The compound `O=C1CSC(c2c[n+]([O-])c3ccccc3[n+]2[O-])N1c1ccc(Cl)cc1` (stereo not shown) [2e, 2-(3′-P-chlorophenyl-4′(5H)-thiazolidinone)-quinoxaline-1,4-di-N-oxide] returned a melting point of 249 to 252 °C. Besides, the “antimycobacterial activity (in words)” value in data set [1] is on record as “good antimycobacterial activity”. Further, the MIC in data set [1] (MABA assay, read-out: MIC) is not above 3.13 µg/mL. For the same compound, the MIC in data set [1] (setting [7]) is 3.13 µg/mL. The MIC in data set [1] (setting [8]) is 8.39 µM. Moreover, the IC50 in data set [2] came out at 116 µg/mL (≈ 310 µM). Also, the MIC in data set [3] was 8 µg/mL (≈ 21.4 µM). The MIC in data set [4] was found to be 32 µg/mL (≈ 85.6 µM). Further, the MIC in data set [5] was determined as 16 µg/mL (≈ 42.8 µM). Also, the MIC in data set [6] is 8 µg/mL (≈ 21.4 µM).
`O=C1CSC(c2c[n+]([O-])c3ccc(F)cc3[n+]2[O-])N1c1ccccc1` (stereo not shown) [2q, 7-F-2-(3′-phenyl-4′(5H)-thiazolidinone)-quinoxaline-1,4-di-N-oxide] showed a melting point of 249 to 252 °C. For the same compound, the MIC in data set [1] (MABA assay, read-out: MIC) amounted to 6.25 µg/mL. The MIC in data set [1] (setting [7]) came out at 6.25 µg/mL. Further, the MIC in data set [1] (setting [8]) is 17.5 µM. It took 126 µg/mL (≈ 354 µM) to reach half-maximal inhibition in data set [2] (IC50). For the same compound, the MIC in data set [3] is 8 µg/mL (≈ 22.4 µM). In data set [4], the MIC was 16 µg/mL (≈ 44.8 µM). Moreover, the MIC in data set [5] worked out at 16 µg/mL (≈ 44.8 µM). For the same compound, the MIC in data set [6] amounted to 4 µg/mL (≈ 11.2 µM).
For `O=C1CSC(c2c[n+]([O-])c3ccc(Cl)cc3[n+]2[O-])N1c1ccccc1` (stereo not shown) [2v, 7-Cl-2-(3′-phenyl-4′(5H)-thiazolidinone)-quinoxaline-1,4-di-N-oxide], the melting point was in the range of 248 to 250 °C. The MIC in data set [1] (MABA assay, read-out: MIC) is not above 3.13 µg/mL. Besides, the MIC in data set [1] (setting [7]) worked out at 3.13 µg/mL. In data set [1] (setting [8]), the MIC was 8.39 µM. The IC50 in data set [2] turned out to be 119 µg/mL (≈ 318 µM). Further, the MIC in data set [3] was 8 µg/mL (≈ 21.4 µM). For the same compound, the MIC in data set [4] was 4 µg/mL (≈ 10.7 µM). Also, the MIC in data set [5] is 8 µg/mL (≈ 21.4 µM). Further, in data set [6], the MIC was found to be 8 µg/mL (≈ 21.4 µM).

For orientation: IC50 means the concentration at which inhibition is half-maximal. As a reminder, the melting point is the temperature of the solid-liquid transition.
